Data set [1] concerns HEK293 cells.
Data set [2] concerns BoNT/A. Conditions: mouse, in vivo; cited from earlier work.
Data set [3] deals with MMPs. The data set is classed as biochemical.

Results on five molecules are retold here after PMC7581224 (Journal of medicinal chemistry, 2020).

For `CCCCCNC(=O)CC(CC(=O)NO)c1ccc(Cl)cc1Cl` (centres unmarked) [Compound 59, 3-(2,4-dichlorophenyl)-N^1-hydroxy-N^5-pentylpentanediamide], in data set [1], the cellular toxicity entry is “did not exhibit cellular toxicity”.

For `O=C(/C=C/c1ccc(Cl)cc1Cl)NO` [Compound 7, 2,4-dichlorocinnamic hydroxamic acid], in data set [2], the rescued mice was 16% and the small molecule-associated toxicity result is reported as “no small molecule-associated toxicity”. Turning to `CS(=O)(=O)SCCCCCN(O)C(=O)/C=C/c1ccc(Cl)cc1Cl` [Compound 31, (E)-S-(5-(3-(2,4-dichlorophenyl)-N-hydroxyacrylamido)pentyl) methanesulfonothioate], in data set [1], the IC50 entry is on record as “did not inhibit cells to the extent that an IC50 value could be calculated”. Regarding `CS(=O)(=O)SCCCNC(=O)CC(CC(=O)NO)c1ccc(Cl)cc1Cl` (stereo not drawn) [Compound 53, S-(3-(3-(2,4-dichlorophenyl)-5-(hydroxyamino)-5-oxopentanamido)propyl) methanesulfonothioate], in data set [3], the MMP inhibition result was “inhibits MMPs significantly less than 32” and the covalent inhibition entry is “no covalent inhibition was observed”. Also, in data set [1], the cellular toxicity entry is on record as “did not exhibit cellular toxicity”. `CS(=O)(=O)SCCCCCCN(O)C(=O)/C=C/c1ccc(Cl)cc1Cl` [Compound 32, (E)-S-(6-(3-(2,4-dichlorophenyl)-N-hydroxyacrylamido)hexyl) methanesulfonothioate]: the covalent inhibition result in data set [3] is given as “no covalent inhibition was observed”.
